For assay [1], the target named is T1, Muscarinic acetylcholine receptor M4 (Homo sapiens) (UniProt P08173).
T1 sequence (whole entry): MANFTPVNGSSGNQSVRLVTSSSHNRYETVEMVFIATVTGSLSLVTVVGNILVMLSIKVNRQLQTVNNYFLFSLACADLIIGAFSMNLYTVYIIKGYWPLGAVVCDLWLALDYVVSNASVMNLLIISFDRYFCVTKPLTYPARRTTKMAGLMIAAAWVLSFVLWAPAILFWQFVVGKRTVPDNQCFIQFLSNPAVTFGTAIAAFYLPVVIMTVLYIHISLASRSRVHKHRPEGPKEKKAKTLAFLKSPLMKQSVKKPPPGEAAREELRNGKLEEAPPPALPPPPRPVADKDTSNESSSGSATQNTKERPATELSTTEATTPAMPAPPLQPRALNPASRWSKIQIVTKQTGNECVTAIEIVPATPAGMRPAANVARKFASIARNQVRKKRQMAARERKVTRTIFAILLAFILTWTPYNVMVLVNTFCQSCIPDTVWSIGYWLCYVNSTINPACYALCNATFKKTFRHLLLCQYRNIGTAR
Nature of the assay: M4 (h) CEREP ligand profiling. The conditions noted are these: Compound concentration 10.0 uM.

For assay [2], the target named is Adenosine receptor A3 (Homo sapiens) (UniProt P0DMS8). Kind of assay: A3 CEREP ligand profiling. The conditions noted are these: Compound concentration 10.0 uM.
Assay [3] concerns the target Sodium-dependent dopamine transporter (Homo sapiens) (UniProt Q01959). Nature of the assay: DA transporter(h) CEREP ligand profiling. The conditions noted are these: Compound concentration 10.0 uM.
Assay [4] has as its target Somatostatin receptor (Homo sapiens) (UniProt P35346+P30874+P31391+P30872+P32745). Kind of assay: sst CEREP ligand profiling. The format is protein assay. The conditions noted are these: Compound concentration 10.0 uM.
Assay [5] deals with GABA-A receptor; anion channel (Homo sapiens) (UniProt P14867+P47870+P18507+P28472+P48169+Q99928+Q9UN88+P34903+O00591+O14764+Q8N1C3+P18505+P78334+P47869+P31644+Q16445). Nature of the assay: Cl- channel CEREP ligand profiling. The class given is protein-complex assay. The conditions noted are these: Compound concentration 10.0 uM.
In assay [6] the target is Adenosine receptor A2a (Homo sapiens) (UniProt P29274). Nature of the assay: A2A (h) CEREP ligand profiling. The conditions noted are these: Compound concentration 10.0 uM.
The target of assay [7] is Beta-2 adrenergic receptor (Homo sapiens) (UniProt P07550). Kind of assay: beta 2 CEREP ligand profiling. The conditions noted are these: Compound concentration 10.0 uM.
The target in assay [8] is Neuropeptide Y receptor type 2 (Homo sapiens) (UniProt P49146). Kind of assay: Y2 (h) CEREP ligand profiling. The conditions noted are these: Compound concentration 10.0 uM.
The target in assay [9] is 5-hydroxytryptamine receptor 7 (Homo sapiens) (UniProt P34969). Nature of the assay: 5-HT7 (h) CEREP ligand profiling. The conditions noted are these: Compound concentration 10.0 uM.
Assay [10] concerns the target Vasoactive intestinal polypeptide receptor 1 (Homo sapiens) (UniProt P32241). Nature of the assay: VIP1 (h) CEREP ligand profiling. The conditions noted are these: Compound concentration 10.0 uM.
The target in assay [11] is D(1B) dopamine receptor (Homo sapiens) (UniProt P21918). Kind of assay: D5 (h) CEREP ligand profiling. The conditions noted are these: Compound concentration 10.0 uM.
Assay [12] addresses Mu-type opioid receptor (Homo sapiens) (UniProt P35372). Nature of the assay: mu (h) (MOP) CEREP ligand profiling. The conditions noted are these: Compound concentration 10.0 uM.
The target in assay [13] is Adrenergic receptor alpha-2 (Homo sapiens) (UniProt P08913+P18825+P18089). Kind of assay: alpha 2 CEREP ligand profiling. The class given is protein assay. The conditions noted are these: Compound concentration 10.0 uM.
Assay [14] deals with Neuromedin-K receptor (Homo sapiens) (UniProt P29371). Nature of the assay: NK3 (h) CEREP ligand profiling. The conditions noted are these: Compound concentration 10.0 uM.
Assay [15] concerns the target Sigma non-opioid intracellular receptor 1 (Homo sapiens, UniProt Q99720). Nature of the assay: sigma CEREP ligand profiling. The conditions noted are these: Compound concentration 10.0 uM.
The target in assay [16] is Cholecystokinin receptor type A (Homo sapiens) (UniProt P32238). Kind of assay: CCKA (h) CEREP ligand profiling. The conditions noted are these: Compound concentration 10.0 uM.
The target of assay [17] is C-X-C chemokine receptor type 2 (Homo sapiens) (UniProt P25025). Nature of the assay: CXCR2 (h) CEREP ligand profiling. The conditions noted are these: Compound concentration 10.0 uM.
Assay [18] has as its target Substance-P receptor (Homo sapiens) (UniProt P25103). Kind of assay: NK1 (h) CEREP ligand profiling. The conditions noted are these: Compound concentration 10.0 uM.
In assay [19] the target is C-C chemokine receptor type 1 (Homo sapiens) (UniProt P32246). Nature of the assay: CCR1 (h) CEREP ligand profiling. The conditions noted are these: Compound concentration 10.0 uM.
The target of assay [20] is 5-hydroxytryptamine receptor 2A (Homo sapiens) (UniProt P28223). Kind of assay: 5-HT2A (h) CEREP ligand profiling. The conditions noted are these: Compound concentration 10.0 uM.
The target in assay [21] is D(1A) dopamine receptor (Homo sapiens) (UniProt P21728). Nature of the assay: D1 (h) CEREP ligand profiling. The conditions noted are these: Compound concentration 10.0 uM.
The nature of assay [22]: K+ channel CEREP ligand profiling. The conditions noted are these: Compound concentration 10.0 uM.
In assay [23] the target is D(2) dopamine receptor (Homo sapiens) (UniProt P14416). Kind of assay: D2S (h) CEREP ligand profiling. The conditions noted are these: Compound concentration 10.0 uM.
Assay [24] addresses T2, Muscarinic acetylcholine receptor M1 (Homo sapiens) (UniProt P11229).
T2 sequence (whole entry): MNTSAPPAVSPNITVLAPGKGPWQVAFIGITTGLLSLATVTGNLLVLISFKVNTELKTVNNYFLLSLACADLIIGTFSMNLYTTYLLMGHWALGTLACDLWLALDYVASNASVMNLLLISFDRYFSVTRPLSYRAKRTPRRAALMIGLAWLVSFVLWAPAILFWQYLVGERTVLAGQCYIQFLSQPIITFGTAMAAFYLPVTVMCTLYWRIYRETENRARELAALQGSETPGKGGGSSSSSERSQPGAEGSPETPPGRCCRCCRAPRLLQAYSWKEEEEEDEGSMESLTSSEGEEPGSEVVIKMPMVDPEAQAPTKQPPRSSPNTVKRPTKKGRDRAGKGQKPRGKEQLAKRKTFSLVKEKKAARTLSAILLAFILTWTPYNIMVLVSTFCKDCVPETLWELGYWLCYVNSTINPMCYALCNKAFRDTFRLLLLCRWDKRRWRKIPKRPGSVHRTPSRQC
Nature of the assay: M1 (h) CEREP ligand profiling. The conditions noted are these: Compound concentration 10.0 uM.

Assay [25] concerns the target Delta-type opioid receptor (Homo sapiens) (UniProt P41143). Kind of assay: delta 2 (h) CEREP ligand profiling. The conditions noted are these: Compound concentration 10.0 uM.
Assay [26] deals with Histamine H2 receptor (Homo sapiens) (UniProt P25021). The conditions noted are these: Compound concentration 10.0 uM.
Assay [27] concerns the target Nociceptin receptor (Homo sapiens) (UniProt P41146). Nature of the assay: ORL1 (h) (NOP) CEREP ligand profiling. The conditions noted are these: Compound concentration 10.0 uM.
In assay [28] the target is Melatonin receptor type 1A (Homo sapiens) (UniProt P48039). Nature of the assay: MT1 (h) CEREP ligand profiling. The conditions noted are these: Compound concentration 10.0 uM.
Assay [29] concerns the target Type-2 angiotensin II receptor (Homo sapiens) (UniProt P50052). Kind of assay: AT2 (h) CEREP ligand profiling. The conditions noted are these: Compound concentration 10.0 uM.
In assay [30] the target is 5-hydroxytryptamine receptor 1B (Homo sapiens) (UniProt P28222). Kind of assay: 5-HT1B CEREP ligand profiling. The conditions noted are these: Compound concentration 10.0 uM.
Assay [31] addresses P2Y receptor (Homo sapiens) (UniProt Q9H244+P51582+P47900+P41231+Q15391+Q15077+Q96G91+Q9BPV8). Nature of the assay: P2Y CEREP ligand profiling. The class given is protein assay. The conditions noted are these: Compound concentration 10.0 uM.
Assay [32] has as its target Serine/threonine-protein kinase 17A (Homo sapiens) (UniProt Q9UEE5). The conditions noted are these: Compound concentration 1000.0 nM.
The target in assay [33] is Transient receptor potential cation channel subfamily A member 1 (Homo sapiens, UniProt O75762). Kind of assay: Fluorometric imaging plate reader (FLIPR)-based Ca2+ assay. Further details: compound concentration 0.03-0.3 uM; call rule not given here.
The target of assay [34] is Dual specificity mitogen-activated protein kinase kinase 6 (Homo sapiens) (UniProt P52564). The conditions noted are these: Compound concentration 1000.0 nM.

Sequence of D(2) dopamine receptor (Homo sapiens) (P14416 whole entry): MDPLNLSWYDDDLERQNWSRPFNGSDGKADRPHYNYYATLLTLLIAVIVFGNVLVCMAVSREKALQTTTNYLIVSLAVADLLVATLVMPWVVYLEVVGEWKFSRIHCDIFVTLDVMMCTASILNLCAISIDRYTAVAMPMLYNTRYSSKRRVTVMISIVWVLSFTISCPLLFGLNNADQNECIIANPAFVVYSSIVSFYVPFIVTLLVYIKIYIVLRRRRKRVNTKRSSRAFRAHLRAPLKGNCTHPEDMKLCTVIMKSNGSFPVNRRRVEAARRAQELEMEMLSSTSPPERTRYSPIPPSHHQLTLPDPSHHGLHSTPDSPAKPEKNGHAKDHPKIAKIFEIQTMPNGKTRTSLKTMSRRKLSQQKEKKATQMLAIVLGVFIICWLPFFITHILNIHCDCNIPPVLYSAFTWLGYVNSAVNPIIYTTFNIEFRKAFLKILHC
Sequence of Mu-type opioid receptor (Homo sapiens) (P35372 whole entry): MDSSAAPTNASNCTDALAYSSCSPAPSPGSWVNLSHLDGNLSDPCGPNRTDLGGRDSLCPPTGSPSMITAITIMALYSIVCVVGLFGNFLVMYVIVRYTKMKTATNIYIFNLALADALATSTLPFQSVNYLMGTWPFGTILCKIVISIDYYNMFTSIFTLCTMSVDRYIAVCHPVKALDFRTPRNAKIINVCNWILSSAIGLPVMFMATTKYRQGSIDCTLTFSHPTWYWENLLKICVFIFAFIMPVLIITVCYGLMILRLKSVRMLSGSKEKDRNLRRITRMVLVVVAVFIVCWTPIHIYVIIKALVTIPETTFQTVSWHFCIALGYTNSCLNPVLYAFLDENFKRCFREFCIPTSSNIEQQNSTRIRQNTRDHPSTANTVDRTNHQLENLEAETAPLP
Sequence of 5-hydroxytryptamine receptor 7 (Homo sapiens) (P34969 whole entry): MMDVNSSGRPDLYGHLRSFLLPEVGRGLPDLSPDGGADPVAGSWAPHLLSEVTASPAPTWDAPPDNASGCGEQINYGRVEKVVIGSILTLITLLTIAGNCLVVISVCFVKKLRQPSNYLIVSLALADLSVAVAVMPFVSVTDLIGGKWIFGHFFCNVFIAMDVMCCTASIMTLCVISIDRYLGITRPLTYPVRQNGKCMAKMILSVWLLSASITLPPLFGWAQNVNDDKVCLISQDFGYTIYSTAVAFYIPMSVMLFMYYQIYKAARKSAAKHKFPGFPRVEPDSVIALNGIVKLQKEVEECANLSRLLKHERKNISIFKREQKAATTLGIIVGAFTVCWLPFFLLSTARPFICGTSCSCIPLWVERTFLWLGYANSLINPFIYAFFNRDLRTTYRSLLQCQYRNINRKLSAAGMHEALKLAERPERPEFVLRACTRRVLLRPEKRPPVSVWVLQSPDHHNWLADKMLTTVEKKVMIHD
Sequence of Vasoactive intestinal polypeptide receptor 1 (Homo sapiens) (P32241 whole entry): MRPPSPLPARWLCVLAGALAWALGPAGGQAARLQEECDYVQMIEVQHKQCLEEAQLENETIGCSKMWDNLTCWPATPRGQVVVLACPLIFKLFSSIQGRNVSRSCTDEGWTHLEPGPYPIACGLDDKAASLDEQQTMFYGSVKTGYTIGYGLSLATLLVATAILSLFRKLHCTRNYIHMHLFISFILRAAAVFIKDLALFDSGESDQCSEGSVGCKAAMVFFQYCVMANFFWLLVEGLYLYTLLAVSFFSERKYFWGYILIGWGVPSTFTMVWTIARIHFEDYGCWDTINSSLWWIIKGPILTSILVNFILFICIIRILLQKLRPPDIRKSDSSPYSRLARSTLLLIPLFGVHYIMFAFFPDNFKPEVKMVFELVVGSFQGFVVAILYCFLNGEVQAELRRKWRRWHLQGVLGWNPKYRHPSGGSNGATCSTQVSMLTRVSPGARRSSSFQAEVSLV
Sequence of Neuromedin-K receptor (Homo sapiens) (P29371 whole entry): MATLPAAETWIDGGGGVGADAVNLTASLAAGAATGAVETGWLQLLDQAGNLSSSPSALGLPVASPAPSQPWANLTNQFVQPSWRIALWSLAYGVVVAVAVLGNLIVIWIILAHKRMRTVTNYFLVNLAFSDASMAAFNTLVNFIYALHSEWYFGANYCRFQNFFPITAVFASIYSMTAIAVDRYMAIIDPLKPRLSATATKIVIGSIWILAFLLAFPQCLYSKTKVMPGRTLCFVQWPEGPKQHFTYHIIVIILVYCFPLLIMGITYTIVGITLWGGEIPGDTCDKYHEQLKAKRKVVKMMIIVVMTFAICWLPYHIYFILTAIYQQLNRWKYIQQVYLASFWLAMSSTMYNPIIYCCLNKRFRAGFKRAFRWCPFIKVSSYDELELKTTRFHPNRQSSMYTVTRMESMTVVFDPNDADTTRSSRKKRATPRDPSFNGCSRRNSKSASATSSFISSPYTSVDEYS
Sequence of Nociceptin receptor (Homo sapiens) (P41146 whole entry): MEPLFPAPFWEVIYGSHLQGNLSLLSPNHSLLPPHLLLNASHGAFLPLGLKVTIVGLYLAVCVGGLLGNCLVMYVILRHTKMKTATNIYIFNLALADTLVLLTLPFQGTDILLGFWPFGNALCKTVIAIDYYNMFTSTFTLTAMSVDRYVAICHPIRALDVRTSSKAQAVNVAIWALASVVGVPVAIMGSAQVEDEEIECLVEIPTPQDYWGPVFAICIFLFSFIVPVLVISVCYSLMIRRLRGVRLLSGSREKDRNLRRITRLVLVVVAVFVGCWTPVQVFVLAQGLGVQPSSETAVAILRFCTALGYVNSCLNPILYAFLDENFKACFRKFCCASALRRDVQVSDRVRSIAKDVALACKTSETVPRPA
Sequence of Sigma non-opioid intracellular receptor 1 (Q99720 whole entry): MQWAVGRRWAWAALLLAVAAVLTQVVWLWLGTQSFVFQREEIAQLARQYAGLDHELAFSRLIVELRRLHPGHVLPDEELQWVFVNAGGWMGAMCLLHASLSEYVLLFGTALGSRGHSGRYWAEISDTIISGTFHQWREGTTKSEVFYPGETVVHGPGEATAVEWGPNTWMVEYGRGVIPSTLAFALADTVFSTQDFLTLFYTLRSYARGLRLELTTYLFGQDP
Sequence of Cholecystokinin receptor type A (Homo sapiens) (P32238 whole entry): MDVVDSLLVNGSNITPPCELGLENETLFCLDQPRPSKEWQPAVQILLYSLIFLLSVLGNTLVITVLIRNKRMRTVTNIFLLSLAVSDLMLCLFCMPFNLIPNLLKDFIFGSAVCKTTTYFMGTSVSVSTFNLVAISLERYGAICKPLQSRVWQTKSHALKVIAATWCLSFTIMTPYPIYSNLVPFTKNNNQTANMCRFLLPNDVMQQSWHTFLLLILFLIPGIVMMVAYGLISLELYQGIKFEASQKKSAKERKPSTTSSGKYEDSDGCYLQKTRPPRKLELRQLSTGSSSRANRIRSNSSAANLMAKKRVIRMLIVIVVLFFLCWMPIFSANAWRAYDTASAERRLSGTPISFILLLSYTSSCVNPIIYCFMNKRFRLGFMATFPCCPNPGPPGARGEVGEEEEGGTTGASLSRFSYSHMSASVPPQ
Sequence of C-C chemokine receptor type 1 (Homo sapiens) (P32246 whole entry): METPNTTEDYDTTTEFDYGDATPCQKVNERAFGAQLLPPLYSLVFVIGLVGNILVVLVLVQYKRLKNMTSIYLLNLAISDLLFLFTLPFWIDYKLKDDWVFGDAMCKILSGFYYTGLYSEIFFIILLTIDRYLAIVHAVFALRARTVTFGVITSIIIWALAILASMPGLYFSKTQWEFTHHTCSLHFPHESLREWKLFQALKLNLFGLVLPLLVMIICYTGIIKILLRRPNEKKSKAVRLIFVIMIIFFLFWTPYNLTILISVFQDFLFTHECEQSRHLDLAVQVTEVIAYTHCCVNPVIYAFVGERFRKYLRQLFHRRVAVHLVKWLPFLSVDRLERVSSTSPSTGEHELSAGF
Sequence of 5-hydroxytryptamine receptor 1B (Homo sapiens) (P28222 whole entry): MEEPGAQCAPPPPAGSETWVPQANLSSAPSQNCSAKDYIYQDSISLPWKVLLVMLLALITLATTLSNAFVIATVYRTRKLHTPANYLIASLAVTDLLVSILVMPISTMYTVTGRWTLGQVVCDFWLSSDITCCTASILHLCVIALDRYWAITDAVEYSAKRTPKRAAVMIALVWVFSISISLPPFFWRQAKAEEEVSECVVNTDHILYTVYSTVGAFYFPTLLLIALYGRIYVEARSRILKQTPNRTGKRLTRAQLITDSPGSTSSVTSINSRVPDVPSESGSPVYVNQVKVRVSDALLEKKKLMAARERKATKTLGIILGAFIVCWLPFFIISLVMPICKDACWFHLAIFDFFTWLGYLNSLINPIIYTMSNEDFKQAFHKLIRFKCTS
Sequence of D(1B) dopamine receptor (Homo sapiens) (P21918 whole entry): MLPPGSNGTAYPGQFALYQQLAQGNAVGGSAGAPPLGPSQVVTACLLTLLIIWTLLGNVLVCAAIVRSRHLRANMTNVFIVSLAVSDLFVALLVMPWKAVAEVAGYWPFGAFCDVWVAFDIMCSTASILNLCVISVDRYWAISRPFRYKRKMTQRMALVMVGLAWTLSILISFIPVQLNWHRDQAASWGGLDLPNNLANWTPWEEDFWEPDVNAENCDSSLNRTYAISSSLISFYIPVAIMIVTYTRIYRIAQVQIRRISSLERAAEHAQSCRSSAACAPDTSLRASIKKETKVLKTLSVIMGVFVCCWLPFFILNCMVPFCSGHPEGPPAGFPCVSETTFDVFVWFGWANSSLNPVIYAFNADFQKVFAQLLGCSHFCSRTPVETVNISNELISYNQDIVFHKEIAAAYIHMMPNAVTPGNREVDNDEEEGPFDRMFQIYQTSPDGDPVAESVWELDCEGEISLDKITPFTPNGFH
Sequence of Neuropeptide Y receptor type 2 (Homo sapiens) (P49146 whole entry): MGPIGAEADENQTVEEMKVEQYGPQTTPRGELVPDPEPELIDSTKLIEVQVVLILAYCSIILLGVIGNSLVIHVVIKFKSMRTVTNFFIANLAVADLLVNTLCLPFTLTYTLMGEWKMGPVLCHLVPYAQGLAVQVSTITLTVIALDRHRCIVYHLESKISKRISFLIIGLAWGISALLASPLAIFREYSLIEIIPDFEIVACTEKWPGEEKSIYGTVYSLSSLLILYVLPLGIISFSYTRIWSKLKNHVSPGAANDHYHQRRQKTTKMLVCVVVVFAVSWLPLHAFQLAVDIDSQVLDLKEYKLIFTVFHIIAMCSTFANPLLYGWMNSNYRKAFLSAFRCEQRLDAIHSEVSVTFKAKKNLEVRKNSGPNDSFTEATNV

Broadly, the inhibition is the drop in the measured response relative to a control, in per cent. Regarding `CCC(=N\O)/C(C)=C/c1ccc(F)cc1` [A-079], the inhibition was 5% in assay [1]; 27% in assay [2]; 43% in [3]; -4% in assay [4]; 26% in [5]; 8% in [6]. Also, the inhibition in assay [7] is -3%; in [8] it was 13%; in assay [9] it was 17%; in assay [10], 0%; in assay [11], -8%; in [12], 12%. The inhibition in [13] is -1%; in [14] it was 23%; in assay [15] it was -2%; in assay [16] it was 29%; in assay [17], -1%; in assay [18], -3%. Also, the inhibition in assay [19] is 1%; in [20], -1%; in [21], 6%; in assay [22], -8%; in assay [23], 4%; in assay [24], 8%. Moreover, the inhibition was 11% in assay [25]; 0.46% in assay [26]; -5% in [27]; 31% in [28]; -9% in assay [29]; 14% in [30]. For the same molecule, in [31], the inhibition was 7%.

By IC50 is commonly meant the concentration at which inhibition is half-maximal. In the case of `CCC(=N\O)/C(C)=C/c1ccc(F)c(C)c1` [A-226], the residual activity is 73% in assay [32] and 100% in assay [34]. For the same molecule, in assay [33], the IC50 is > 100 µM (not active).

For the origin of these results see ChEMBL document CHEMBL4507256 (2021).
